Assay results published in patent publication US20030105360A1, “Form a of fluoxetine hydrochloride” (priority 2001, published 2003).

Type: physicochemical
Description: Using the appropriately precise DSC method set forth in Example 12 herein, wherein the analysis is conducted at a maximum rate of 1° C. per minute, multiple levels of polymorph Forms A, B, and C each are typically present in fluoxetine hydrochloride API (FIGS. 2 and 4). When such API is prepared via any one of the methods of the present invention, recrystallization, slurry, and compression, and analyzed using said DSC method, a single endotherm occurring at a temperature range from about 155° C. to about 160° C., and more preferably from about 157° C. to about 159° C., confirms the presence of Form A of fluoxetine hydrochloride (FIGS. 6 and 8 for the compression and slurry methods, respectively). […] Accordingly, the slurry method for preparing pure and essentially pure Form A is preferred, while the compression method is especially preferred.
Differential Scanning Calorimetry for fluoxetine hydrochloride. The method described in Example 11 was used, except the heating rate was changed from 10° C. per minute to a heating rate of 1° C. per minute from 145° C. to 175° C.

Compound: CNCCC(Oc1ccc(C(F)(F)F)cc1)c1ccccc1.Cl (racemic) [Form A, (±)-N-methyl-3-phenyl-2-[α,α,α-trifluoro-p-tolyl) oxy] propylamine hydrochloride]
- polymorphic forms found by DSC after storage under accelerated stability conditions: two additional polymorphs of fluoxetine hydrochloride, Forms D and E, were prepared
- polymorphic forms found by DSC thermogram (FIG. 11) after storage (pure Form A prepared via recrystallization method, stored at 40° C. and 75% relative humidity, within three days): Forms A, D, and E, which formed within three days
